The target in one series is T1, MERS-CoV nsp14 (Betacoronavirus England 1, UniProt K9N7C7).
T1 construct: gene rep
Description: biochemical.

The next series has as its target T2, HCoV-229E nsp14 (Human coronavirus 229E, UniProt P0C6X1).
T2 construct: gene rep
The series can be described thus: RapidFire MS methyltransferase assay. The series is classed as biochemical. The conditions noted are these: read-out: IC50. From the text: RapidFire MS methyltransferase assay on HCoV-229E nsp14

A short description of series [1]: in vitro. Further details: mouse liver microsomal stability. To be noted: liver microsomes; Mouse liver microsomes; read-out: Mouse liver Mic T1/2 / min. The text has this:
We initiated our structure-activity relationship (SAR) studies by investigating various replacements for the benzothiazole group, compounds 2-17, Table 1. […] Relatively flat SAR is observed across this subset of compounds, indeed a 6,5 or 6,6 aromatic system with the appropriate connectivity as compound 1 display relatively similar potencies. […] In general, the mouse microsomal clearance was rather low for this set of molecules, with no significant instabilities introduced, with perhaps the exception of compound 4. With no significant advantages in either potency or mouse microsomal clearance (Table S2) identified for this subset, the benzothiazole was taken forward into subsequent SAR studies. Table 2. Enzymatic inhibition against SARS-CoV-2 nsp14, human RNMT, CHI-logD and mouse microsomal stability.

The target of a further series is human RNMT (Homo sapiens, UniProt O43148). Description: RNMT methyltransferase assay (Gray et al.). The format is biochemical. From the text: RNMT methyltransferase assay (Gray et al.) on human RNMT
Chain of human RNMT (O43148 whole entry): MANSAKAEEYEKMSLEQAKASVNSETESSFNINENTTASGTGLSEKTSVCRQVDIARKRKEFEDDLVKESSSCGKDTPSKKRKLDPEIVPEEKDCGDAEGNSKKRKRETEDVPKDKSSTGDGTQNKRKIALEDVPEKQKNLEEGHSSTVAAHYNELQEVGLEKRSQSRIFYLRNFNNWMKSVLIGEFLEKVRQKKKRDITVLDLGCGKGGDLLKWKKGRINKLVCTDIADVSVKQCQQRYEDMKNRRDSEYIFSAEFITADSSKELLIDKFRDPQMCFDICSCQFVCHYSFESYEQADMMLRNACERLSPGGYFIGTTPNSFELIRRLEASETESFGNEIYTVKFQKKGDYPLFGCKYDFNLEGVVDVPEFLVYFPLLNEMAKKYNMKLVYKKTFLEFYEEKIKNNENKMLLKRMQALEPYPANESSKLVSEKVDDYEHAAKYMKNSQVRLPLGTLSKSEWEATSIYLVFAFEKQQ
Another series deals with T3, SARS-CoV-2 nsp14 (Severe acute respiratory syndrome coronavirus 2, UniProt P0DTD1).
T3 construct: gene rep
The series can be described thus: RapidFire MS methyltransferase assay. The series is classed as biochemical. The conditions noted are these: read-out: IC50. The text has this:
RapidFire MS methyltransferase assay on SARS-CoV-2 nsp14

For a further series, the target named is HCoV-NL63 nsp14 (Human coronavirus NL63, UniProt P0C6X5). Description: RapidFire MS methyltransferase assay. To be noted: read-out: IC50. The format is biochemical. The text has this: RapidFire MS methyltransferase assay on HCoV-NL63 nsp14
Chain of HCoV-NL63 nsp14 (P0C6X5 5568-6085): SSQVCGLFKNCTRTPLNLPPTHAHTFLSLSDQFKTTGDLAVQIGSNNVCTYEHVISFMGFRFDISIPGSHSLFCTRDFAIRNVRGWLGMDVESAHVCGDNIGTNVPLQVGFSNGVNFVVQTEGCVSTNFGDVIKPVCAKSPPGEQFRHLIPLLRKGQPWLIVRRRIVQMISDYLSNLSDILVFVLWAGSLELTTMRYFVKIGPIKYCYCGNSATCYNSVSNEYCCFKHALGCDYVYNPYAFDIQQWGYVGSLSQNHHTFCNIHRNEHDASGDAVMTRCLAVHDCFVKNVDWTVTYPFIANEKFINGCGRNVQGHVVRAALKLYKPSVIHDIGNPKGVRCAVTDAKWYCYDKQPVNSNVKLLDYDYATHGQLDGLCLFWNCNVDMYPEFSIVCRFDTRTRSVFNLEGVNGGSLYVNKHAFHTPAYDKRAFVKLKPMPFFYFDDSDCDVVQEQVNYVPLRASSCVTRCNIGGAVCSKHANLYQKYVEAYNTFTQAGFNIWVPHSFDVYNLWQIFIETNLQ
The nature of series [2]: physchem.
A short description of series [3]: in vitro. The conditions noted are these: african green monkey, vero e6 cells; read-out: CPE assay CC50 /. Further details: cytotoxicity alongside the cytopathic effect assay in Vero E6 cells. From the text: This may be due to the increased rigidity of the alkene linkage and a lower entropic penalty upon binding. As a matched pair to the previously reported compounds 32 and 34, we selected potent and stable compound 33 and 40, with the same change of adenosine base, Base A, to Base B and measure the antiviral activity. […] One potential reason for this disparity may be attributed to the differing experimental conditions used in the two assays and requires further investigation. […] Therefore, consistent with the body of the literature, we observed no significant antiviral activity against SARS-CoV-2 for this class of compounds. We hypothesise that as the compounds bind in both the SAM and the RNA pocket of nsp14 and are therefore competitive with both substrates, in the cellular context there is a significant competition with intracellular SAM/SAH and the viral RNA, which is likely present at a higher concentration than used in the biochemical assay. The concentration of SAM used in the SARS-CoV-2 nsp14 assay is 1.0 µM and although measurements of SAM or SAH concentrations in Vero E6 cells haven’t been reported, others have reported intracellular concentrations of SAM of 354 µM in other cell lines.[30] The concentration of the viral RNA substrate in cellulo and increased effective concentrations from the proximity of other nsp proteins involved in viral RNA production may also play a role that is further not captured in the bioche Table 5. Selected compounds with cellular potency. The apparent EC50 values in the cytopathic effect assay are shown, along with the toxicity effect CC50

Series [4] can be described thus: physchem. Also noted: solubility. From the text:
Table 5. Selected compounds with cellular potency. The apparent EC50 values in the cytopathic effect assay are shown, along with the toxicity effect CC50

For series [5], the system named is SARS-CoV-2. The series can be described thus: microbe, parasite or virus in culture. Also noted: species or system Vero E6; antiviral cytopathic effect assay with SARS-CoV-2 in Vero E6 cells. To be noted: Severe acute respiratory syndrome coronavirus 2, Vero C1008; read-out: CPE assay EC50 /.
Series [6] can be described thus: in vitro. To be noted: dog, MDCK. Further details: MDCK permeability.
In series [7] the test system is SARS-CoV-2. Description: microbe, parasite or virus in culture. Further details: species or system Vero E6; antiviral cytopathic effect assay with SARS-CoV-2 in Vero E6 cells. To be noted: Severe acute respiratory syndrome coronavirus 2, Vero C1008; read-out: CPE assay EC50 /. The source holds these as a separate data set.
Series [8] in a line: in vitro. Further details: MDCK permeability. The conditions noted are these: dog, MDCK. This is another data set of the same source.

Converted amounts (≈) assume the structure as drawn. Where two headings read alike, the source gives them in different places. Some results are limits rather than exact numbers.

T2 sequence (P0C6X1 5593-6110): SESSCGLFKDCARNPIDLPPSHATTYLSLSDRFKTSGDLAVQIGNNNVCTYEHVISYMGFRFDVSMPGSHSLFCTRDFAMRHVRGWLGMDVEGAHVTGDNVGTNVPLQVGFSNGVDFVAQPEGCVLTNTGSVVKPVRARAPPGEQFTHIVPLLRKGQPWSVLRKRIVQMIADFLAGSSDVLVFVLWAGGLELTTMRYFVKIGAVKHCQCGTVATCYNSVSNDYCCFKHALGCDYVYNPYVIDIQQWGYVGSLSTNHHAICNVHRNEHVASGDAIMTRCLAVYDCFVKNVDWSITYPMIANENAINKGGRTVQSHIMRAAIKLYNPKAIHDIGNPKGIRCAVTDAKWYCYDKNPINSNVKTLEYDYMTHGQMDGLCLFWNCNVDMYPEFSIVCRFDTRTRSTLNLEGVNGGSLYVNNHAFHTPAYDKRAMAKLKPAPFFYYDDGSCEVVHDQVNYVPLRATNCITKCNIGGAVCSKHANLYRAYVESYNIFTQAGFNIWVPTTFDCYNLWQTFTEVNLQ
T1 sequence (K9N7C7 5909-6432 limits assumed): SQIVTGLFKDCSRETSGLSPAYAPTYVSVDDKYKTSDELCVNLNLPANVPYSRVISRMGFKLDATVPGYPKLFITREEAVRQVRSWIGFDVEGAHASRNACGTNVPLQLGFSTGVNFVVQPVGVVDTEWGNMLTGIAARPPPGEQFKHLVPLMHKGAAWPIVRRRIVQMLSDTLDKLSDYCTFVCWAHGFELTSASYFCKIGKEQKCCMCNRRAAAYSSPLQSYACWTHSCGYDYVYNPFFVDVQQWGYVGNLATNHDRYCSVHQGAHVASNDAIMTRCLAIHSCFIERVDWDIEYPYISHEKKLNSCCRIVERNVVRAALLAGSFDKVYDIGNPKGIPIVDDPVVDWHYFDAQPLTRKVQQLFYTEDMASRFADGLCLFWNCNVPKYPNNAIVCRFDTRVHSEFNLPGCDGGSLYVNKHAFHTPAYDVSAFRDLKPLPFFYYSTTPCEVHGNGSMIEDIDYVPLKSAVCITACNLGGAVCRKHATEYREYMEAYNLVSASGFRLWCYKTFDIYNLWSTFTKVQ

As for `Nc1ncnc2c1ncn2[C@@H]1C[C@H](CSc2nc3ccccc3s2)[C@@H](O)[C@H]1O` [compound 26], the IC50 against MERS-CoV nsp14 is 730 nM; at HCoV-229E nsp14, 21 ± 4 nM; at human RNMT it was above 100000 nM; on SARS-CoV-2 nsp14, 53 ± 30 nM; at HCoV-NL63 nsp14, 8 ± 3 nM. In addition, the half-life in “in vitro [1]” was above 30 min. Further, the pH-dependent lipophilicity (logD) in “physchem [2]” came to 1.5.
As for `Nc1ncnc2c1ncn2[C@@H]1O[C@H](CNS(=O)(=O)c2ccc3ccccc3c2)[C@@H](O)[C@H]1O` [compound 32, N-[[(2R,3S,4R,5R)-5-(6-Aminopurin-9-yl)-3,4-dihydroxy-tetrahydrofuran-2-yl]methyl]naphthalene-2-sulfonamide], the CC50 in the series “in vitro [3]” was above 100000 nM. The half-life in “in vitro [1]” is above 30 min. In addition, in “physchem [4]”, the concentration in solution (solubility) was 213 µM (≈ 97.2 µg/mL). The EC50 in the series with SARS-CoV-2 [5] was above 100000 nM.
For the molecule `Nc1ncnc2c1ncn2[C@@H]1O[C@H](CNS(=O)(=O)c2ccc3ccccc3c2)[C@@H](O)[C@H]1O` [compound 32], the IC50 was 300 ± 10 nM on HCoV-229E nsp14, above 100000 nM against human RNMT, 130 ± 40 nM at SARS-CoV-2 nsp14 and 530 ± 120 nM at HCoV-NL63 nsp14. In “in vitro [6]”, the apparent permeability (Papp) is 1.2 ×10⁻⁶ cm/s. The molecule also showed a logD in “physchem [2]” of 1.5.
On to `Nc1ncnc2c1ncn2[C@@H]1O[C@H](/C=C/c2nc3ccccc3s2)[C@@H](O)[C@H]1O` [compound 33, (2R,3R,4S,5R)-2-(6-Aminopurin-9-yl)-5-[(E)-2-(1,3-benzothiazol-2-yl)vinyl]tetrahydrofuran-3,4-diol], for which, in “in vitro [3]”, the CC50 is 21000 nM. Also, the half-life in the series “in vitro [1]” is above 30 min. For the same molecule, the concentration in solution in the series “physchem [4]” (solubility) came to 18.2 µM (≈ 7.22 µg/mL). Further, the EC50 in the series with SARS-CoV-2 [5] was found to be 8700 nM.
For the molecule `Nc1ncnc2c1ncn2[C@@H]1O[C@H](/C=C/c2nc3ccccc3s2)[C@@H](O)[C@H]1O` [compound 33], the IC50 was 51 ± 9 nM on HCoV-229E nsp14, above 100000 nM on human RNMT, 36 ± 10 nM at SARS-CoV-2 nsp14 and 17 ± 1 nM at HCoV-NL63 nsp14. This molecule had a Papp in “in vitro [6]” of 4.9 ×10⁻⁶ cm/s. The pH-dependent lipophilicity (logD) in the series “physchem [2]” was 1.3.
Regarding `Nc1ncnn2c([C@@H]3O[C@H](CNS(=O)(=O)c4ccc5ccccc5c4)[C@@H](O)[C@H]3O)ccc12` [compound 34, N-[[(2R,3S,4R,5S)-5-(4-Aminopyrrolo[2,1-f][1,2,4]triazin-7-yl)-3,4-dihydroxy-tetrahydrofuran-2-yl]methyl]naphthalene-2-sulfonamide], the CC50 in the series “in vitro [3]” was above 100000 nM. Moreover, in the series “in vitro [1]”, the half-life came out at 9.9 min. The solubility in the series “physchem [4]” came out at 226 µM (≈ 103 µg/mL). In addition, the EC50 in the series on SARS-CoV-2 [7] was 30000 nM.
Take `Nc1ncnn2c([C@@H]3O[C@H](CNS(=O)(=O)c4ccc5ccccc5c4)[C@@H](O)[C@H]3O)ccc12` [compound 34]: in “in vitro [8]”, the apparent permeability coefficient (Papp) is 1 ×10⁻⁶ cm/s. Further, the IC50 at HCoV-229E nsp14 was found to be 320 ± 10 nM; against human RNMT, 27700 nM; at SARS-CoV-2 nsp14 it was 170 ± 30 nM; at HCoV-NL63 nsp14, 760 ± 310 nM. The logD in the series “physchem [2]” turned out to be 1.6.
As to `Nc1ncnn2c([C@@H]3O[C@H](/C=C/c4nc5ccccc5s4)[C@@H](O)[C@H]3O)ccc12` [compound 40, (2S,3R,4S,5R)-2-(4-aminopyrrolo[2,1-f][1,2,4]triazin-7-yl)-5-[(E)-2-(1,3-benzothiazol-2-yl)vinyl]tetrahydrofuran-3,4-diol], in the series “in vitro [3]”, the CC50 is above 10000 nM. In addition, in “in vitro [1]”, the half-life is above 30 min. Moreover, in “physchem [4]”, the solubility is 4.7 µM (≈ 1.86 µg/mL). The EC50 in the series on SARS-CoV-2 [7] is above 10000 nM.
With `Nc1ncnn2c([C@@H]3O[C@H](/C=C/c4nc5ccccc5s4)[C@@H](O)[C@H]3O)ccc12` [compound 40], the Papp in “in vitro [8]” is 12.8 ×10⁻⁶ cm/s. The half-inhibitory concentration (IC50) at HCoV-229E nsp14 was found to be 49 ± 1 nM; on SARS-CoV-2 nsp14, 83 ± 100 nM; on HCoV-NL63 nsp14 it was 13 ± 6 nM. In “physchem [2]”, this molecule gave a logD of 1.5.

The IC50 is the concentration that inhibits the measured activity by half. As a reminder, the logD is lipophilicity at a set pH, counting ionised and neutral species. One may read the solubility as how much of the substance goes into solution per volume. The Papp is the rate of passage across a membrane or cell layer, normalised by area and donor concentration. The low end stands for slow passage, the high end for fast passage.

For the origin of these results see doi:10.1101/2025.09.30.679521v1, “Crystallographic characterisation and development of bi-substrate inhibitors of coronavirus nsp14 methyltransferase” (biorxiv, 2025).
